# Data: ChEMBL document CHEMBL1914361, “Shishicrellastatins, inhibitors of cathepsin B, from the marine sponge Crella (Yvesia) spinulata” (Bioorg Med Chem, 2011)
# Target: Cathepsin B (Bos taurus, UniProt P07688)
# Assay: Inhibition of bovine cathepsin B after 1 hr by fluorescence assay
row,IC50 [µM],Structure (SMILES)
1,6.79,C[C@H]([C@@H]1C[C@H]2C[C@](C)(OC2(C)C)[C@@H](CC[C@@H](C)[C@H]2CC[C@H]3C4=C(CC[C@]23C)[C@@]2(C)C[C@H](OS(=O)(=O)O)[C@@H](OS(=O)(=O)O)[C@H](C)C2=CC4)O1)[C@H]1CC[C@H]2C3=C(CC[C@]12C)[C@]12CC[C@](O)(OC1)[C@@H](C)[C@@H]2[C@@H](OS(=O)(=O)O)C3 [SHISHICRELLASTATIN A]
2,6.81,C[C@H]([C@@H]1C[C@H]2C[C@](C)(OC2(C)C)[C@@H](CC[C@@H](C)[C@H]2CC=C3C4=C(CC[C@@]32C)[C@@]2(C)C[C@H](OS(=O)(=O)O)[C@@H](OS(=O)(=O)O)[C@H](C)C2=CC4)O1)[C@H]1CC[C@H]2C3=C(CC[C@]12C)[C@]12CC[C@](O)(OC1)[C@@H](C)[C@@H]2[C@@H](OS(=O)(=O)O)C3 [SHISHICRELLASTATIN B]
